Common to all, as to assay type: cell-based
In one experiment the test system is A549 (lung cancer). The experiment in a line: SRB cell growth inhibition assay, A549. As to conditions: Homo sapiens, 96 hours, read-out: concentration of the drug to inhibit the cell growth by 50%. The source says:
(§1) Measurement of the Growth Inhibition Ability Against Cancer Cells
(§2) Human cancer cell strains were obtained through the following paths: OVCAR-3 (ovarian cancer), MCF-7 (hormone dependent breast cancer), MDA-MB-231 (breast cancer), HeLa (cervical cancer), PC3 (prostate cancer), LNCap (prostate cancer), HepG2 (liver cancer), A549 (lung cancer), NCI-H226 (lung cancer), Caki-1 (kidney cancer), SK-MEL-28 (melanoma cancer), HT-29 (colorectal cancer), HCT116 (colorectal cancer) and PANC-1 (pancreas cancer) cells were purchased from American Type Culture Collection (ATCC) (Manassas, Va.); U251(brain tumor) cells were purchased from Riken Institutes, Marunouchi, Tokyo, Japan; MKN-45 (gastric cancer) cells were purchased from DSMZ (Germany); and UMRC2 (kidney cancer) cells were purchased from U.S. National Cancer Institute (Bethesda, Md.).
(§3) MDA-MB-231, HCT116, UMRC2, Caki-1 and PANC-1 cells were cultured in Dulbecco's modified Eagle's medium (“DMEM”, Invitrogen) including 10% FBS, 100 units/mL penicillin-streptomycin (P/S), 10 mM HEPES and 2 mM L-glutamine. All the other cell strains were cultured in RPMI1640 medium (Invitrogen, Carlsbad, Calif.) including 10% fetal bovine serum (FBS), 1 mM sodium pyruvate, 10 mM HEPES, and 100 units/mL penicillin-streptomycin (P/S). All cells were cultured at 37° C. 5% CO2 humid conditions.
(§4) The cell growth inhibition level of the novel compound synthesized using (1S,2R,5S)-5-(6-Aminopurine-9-yl)-4-fluoro-3-hydroxyethyl-cyclopent-3(4)-en-1,2-diol (compound of Formula 1 where X is NH2 and R2 is H) prepared in the above Example 3, (1S,2R,5S)-4-Fluoro-3-hydroxyethyl-5-(uracil-1-yl)-cyclopent-3(4)-en-1,2-diol (Compound 10) prepared in the above Example 4, (1S,2R,5S)-5-(Cytosine-1-yl)-4-fluoro-3-hydroxyethyl-cyclopent-3(4)-en-1,2-diol (Compound 11) prepared in the above Example 5, Fluoro-neplanocin A, and Homoneplanocin A was analyzed by SRB (sulphorhodamine B) assay according to the publicly known method in the literature.
(§5) Human cancer cell strains increased exponentially were divided into the 96-well plates at the density of 2×10^3 to 3×10^3 cells/well and processed with the compounds of the various concentrations in the present invention on the next day. 0.25% DMSO was used as a control group. Three experiments were performed for each process. The cells were fixed with 10% trichloro-acetic acid at 96 hours after processing with the compound and SRB analysis was carried out. Optical density was measured at 530 nm with Benchmark PlusMicroplate Reader (Bio-Rad Laboratories, Hercules, Calif.). The concentration of the drug to inhibit the cell growth by 50% […] was measured with Kaledia Graph (Synergy software, Reading, Pa.).

For another experiment, the system named is PC-3 (prostate cancer). The experiment can be described thus: SRB cell growth inhibition assay, PC-3. As to conditions: Homo sapiens, 96 hours, read-out: concentration of the drug to inhibit the cell growth by 50%.
Source text: as §1, §2, §3, §4, §5

A further experiment has as its system K562 (blood cancer). The experiment can be described thus: SRB cell growth inhibition assay, K562. As to conditions: Homo sapiens, 96 hours, read-out: concentration of the drug to inhibit the cell growth by 50%.
Source text: [Worded in the source for another cell line; this cell line is reported under the same test.] as §1, §2, §3, §4, §5

Experiment [1] concerns HCT-116 (colorectal cancer). The experiment in a line: SRB cell growth inhibition assay, HCT-116. As to conditions: Homo sapiens, 96 hours, read-out: concentration of the drug to inhibit the cell growth by 50%.
Source text: as §1, §2, §3, §4, §5

For the next experiment, the system named is T47D (breast cancer). The experiment can be described thus: SRB cell growth inhibition assay, T47D. As to conditions: Homo sapiens, 96 hours, read-out: concentration of the drug to inhibit the cell growth by 50%.
Source text: [Worded in the source for another cell line; this cell line is reported under the same test.] as §1, §2, §3, §4, §5

The next experiment concerns SNU638 (gastric cancer). The experiment in a line: SRB cell growth inhibition assay, SNU638. As to conditions: Homo sapiens, SNU-638, 96 hours, read-out: concentration of the drug to inhibit the cell growth by 50%.
Source text: [Worded in the source for another cell line; this cell line is reported under the same test.] as §1, §2, §3, §4, §5

As for `O=c1ccn([C@@H]2C(F)=C(CCO)[C@@H](O)[C@H]2O)c(=O)[nH]1` [Compound 10, (1S,2R,5S)-4-Fluoro-3-hydroxyethyl-5-(uracil-1-yl)-cyclopent-3(4)-en-1,2-diol], the IC50 (in the experiment with A549 (lung cancer); in the experiment with PC-3 (prostate cancer); in the experiment with K562 (blood cancer); in experiment [1]; in the experiment with T47D (breast cancer); in the experiment on SNU638 (gastric cancer)) was above 10 µM throughout.

For the compound `Nc1ccn([C@@H]2C(F)=C(CCO)[C@@H](O)[C@H]2O)c(=O)n1` [Compound 11, (1S,2R,5S)-5-(Cytosine-1-yl)-4-fluoro-3-hydroxyethyl-cyclopent-3(4)-en-1,2-diol], the IC50 (in the experiment with A549 (lung cancer); in the experiment on PC-3 (prostate cancer); in the experiment with K562 (blood cancer); in experiment [1]; in the experiment on T47D (breast cancer); in the experiment on SNU638 (gastric cancer)) was above 10 µM throughout.

In the case of `Nc1ncnc2c1ncn2[C@@H]1C(F)=C(CCO)[C@@H](O)[C@H]1O` [Compound of Formula 1, (1S,2R,5S)-5-(6-Aminopurine-9-yl)-4-fluoro-3-hydroxyethyl-cyclopent-3(4)-en-1,2-diol], the IC50 in the experiment with A549 (lung cancer) stood at 0.62 µM; with PC-3 (prostate cancer), 2.39 µM; in the experiment on K562 (blood cancer), 0.13 µM; in experiment [1], 1.1 µM; in the experiment with T47D (breast cancer), 2.83 µM; with SNU638 (gastric cancer), 0.37 µM.

`Nc1ncnc2c1ncn2C1C(F)=C(CO)C(O)C1O` (stereo not drawn) [Fluoro-neplanocin A, reference compound]: the IC50 came out at 2.6 µM in the experiment on A549 (lung cancer); 3.1 µM with PC-3 (prostate cancer); 2.2 µM in the experiment with K562 (blood cancer); 1.4 µM in experiment [1]; 3.6 µM in the experiment with T47D (breast cancer); 1.3 µM with SNU638 (gastric cancer).

Turning to `Nc1ncnc2c1ncn2C1C=C(CCO)C(O)C1O` (stereo not drawn) [Homoneplanocin A], the IC50 (with A549 (lung cancer); in the experiment on PC-3 (prostate cancer); in the experiment with K562 (blood cancer); in experiment [1]; in the experiment on T47D (breast cancer); in the experiment with SNU638 (gastric cancer)) was above 10 µM in each case.
